How the values were obtained:
Rattus norvegicus [1] = test: Antiinflammatory activity in Sprague-Dawley rat assessed as inhibition of carrageenan-induced paw edema at 50 mg/kg, ip treated 60 mins before carrageenan challenge measured after 180 mins; type: functional; conditions: route intraperitoneal
Rattus norvegicus [2] = test: Antiinflammatory activity in Sprague-Dawley rat assessed as inhibition of carrageenan-induced paw edema at 50 mg/kg, ip treated 60 mins before carrageenan challenge measured after 90 mins; type: functional; conditions: route intraperitoneal
Rattus norvegicus [3] = test: Antiinflammatory activity in Sprague-Dawley rat assessed as inhibition of carrageenan-induced paw edema at 50 mg/kg, po treated 60 mins before carrageenan challenge measured after 90 mins; type: functional
[4] = Inhibition of PDE1
Rattus norvegicus [5] = test: Antiinflammatory activity in Sprague-Dawley rat assessed as inhibition of carrageenan-induced paw edema at 50 mg/kg, po treated 60 mins before carrageenan challenge measured after 180 mins; type: functional
Rattus norvegicus [6] = test: Toxicity in Sprague-Dawley rat assessed as gastrointestinal ulceration at 200 mg/kg, po once daily for 5 days; type: organism-based; set-up: dose 200 mg/kg, route oral; conditions: in vivo, 120 h

Row | Structure (SMILES) | IC50 [4] [µM] | inhibition in vivo at 50 mg/kg (Rattus norvegicus [1]) [%] | inhibition in vivo at 50 mg/kg (Rattus norvegicus [2]) [%] | inhibition in vivo at 50 mg/kg (Rattus norvegicus [3]) [%] | inhibition in vivo at 50 mg/kg (Rattus norvegicus [5]) [%] | Activity (Rattus norvegicus [6])
1 | COc1ccc(-c2csc3ncn4c(=O)c5ccccc5nc4c23)cc1 | 66.9 | 74 | 69 | 57 | 71 | Non-toxic
2 | Cc1ccc(-c2cc(-c3ccc(Cl)cc3)c3c(ncn4c(=O)c5cc(Br)ccc5nc34)n2)cc1 | 66.4 | 89 | 82 | 80 | 87 | –
3 | COc1ccc(-c2cc(-c3ccccc3)nc3ncn4c(=O)c5cc(Br)cc(Br)c5nc4c23)cc1 | 33.7 | 86 | 78 | 76 | 82 | Non-toxic
4 | COc1ccc(-c2cc(-c3cccc([N+](=O)[O-])c3)c3c(ncn4c(=O)c5cc(Br)ccc5nc34)n2)cc1 | 101 | 30 | 13 | 12 | 25 | –
5 | Cc1ccc(-c2cc(-c3ccc(Cl)cc3)c3c(ncn4c(=O)c5cc(Br)cc(Br)c5nc34)n2)cc1 | 57.6 | 83 | 78 | 72 | 80 | –
6 | Cc1sc2ncn3c(=O)c4cc(Br)cc(Br)c4nc3c2c1C | 95.7 | 27 | 11 | 10 | 22 | –
7 | O=c1c2ccccc2nc2c3c(-c4ccccc4)cc(-c4ccc(Cl)cc4)nc3ncn12 | 80.6 | 34 | 18 | 18 | 26 | –
8 | O=c1c2cc(Br)cc(Br)c2nc2c3c4c(sc3ncn12)CCCC4 | 104 | 21 | 4 | 5 | 15 | –
9 | Cc1ccc(-c2cc(-c3ccccc3)nc3ncn4c(=O)c5ccccc5nc4c23)cc1 | 91.8 | 20 | 8 | 8 | 15 | –
10 | O=c1c2cc(Br)cc(Br)c2nc2c3c(-c4ccc([N+](=O)[O-])cc4)cc(-c4ccc([N+](=O)[O-])cc4)nc3ncn12 | 72.5 | 56 | 47 | 46 | 54 | –
11 | O=c1c2cc(Br)ccc2nc2c3c(-c4ccc([N+](=O)[O-])cc4)cc(-c4ccc([N+](=O)[O-])cc4)nc3ncn12 | 101 | 28 | 11 | 10 | 22 | –
12 | COc1ccc(-c2csc3ncn4c(=O)c5cc(Br)cc(Br)c5nc4c23)cc1 | 60.5 | 31 | 16 | 15 | 29 | –
13 | O=c1c2cc(Br)ccc2nc2c3c4c(sc3ncn12)CCCC4 | 128 | 71 | 63 | 60 | 68 | –
14 | COc1ccc(-c2cc(-c3cccc([N+](=O)[O-])c3)c3c(ncn4c(=O)c5cc(Br)cc(Br)c5nc34)n2)cc1 | 72 | 78 | 68 | 65 | 74 | Non-toxic
15 | Cc1ccc(-c2csc3ncn4c(=O)c5cc(Br)ccc5nc4c23)cc1 | 85.3 | 56 | 42 | 40 | 52 | –
16 | Cc1ccc(-c2cc(-c3ccccc3)nc3ncn4c(=O)c5cc(Br)ccc5nc4c23)cc1 | 78.1 | 70 | 60 | 57 | 68 | Non-toxic
17 | COc1ccc2c(c1)c(CC(=O)O)c(C)n2C(=O)c1ccc(Cl)cc1 [INDOMETHACIN] | – | 83 | 76 | 72 | 79 | Toxic

Second part, led by results:

Row | IC50 [4] [µM] | Structure (SMILES) | inhibition in vivo at 50 mg/kg (Rattus norvegicus [1]) [%] | inhibition in vivo at 50 mg/kg (Rattus norvegicus [2]) [%] | inhibition in vivo at 50 mg/kg (Rattus norvegicus [3]) [%] | inhibition in vivo at 50 mg/kg (Rattus norvegicus [5]) [%] | Activity (Rattus norvegicus [6])
18 | 98.2 | Cc1ccc(-c2cc(-c3ccc(Cl)cc3)c3c(ncn4c(=O)c5ccccc5nc34)n2)cc1 | 53 | 38 | 37 | 49 | –
19 | 95.1 | O=c1c2cc(Br)ccc2nc2c3c(-c4ccccc4)cc(-c4ccc(Cl)cc4)nc3ncn12 | 80 | 69 | 67 | 77 | Non-toxic
20 | 56.4 | Cc1ccc(-c2cc(Cc3ccco3)c3c(ncn4c(=O)c5ccccc5nc34)n2)cc1 | 20 | 6 | 11 | 22 | –
21 | 83.5 | O=c1c2cc(Br)cc(Br)c2nc2c3c(-c4ccc(Cl)cc4)csc3ncn12 | 17 | 2 | 2 | 10 | –
22 | 39.9 | COc1ccc(-c2cc(-c3cccc([N+](=O)[O-])c3)c3c(ncn4c(=O)c5ccccc5nc34)n2)cc1 | 16 | 3 | 3 | 9 | –
23 | 52.4 | Cc1ccc(-c2cc(-c3ccccc3)nc3ncn4c(=O)c5cc(Br)cc(Br)c5nc4c23)cc1 | 72 | 62 | 59 | 70 | Non-toxic
24 | 76.6 | COc1ccc(-c2cc(-c3ccccc3)nc3ncn4c(=O)c5cc(Br)ccc5nc4c23)cc1 | 44 | 28 | 26 | 41 | –
25 | 146 | Cc1sc2ncn3c(=O)c4cc(Br)ccc4nc3c2c1C | 76 | 66 | 63 | 71 | –
26 | 124 | O=c1c2ccccc2nc2c3c(-c4ccc(Cl)cc4)csc3ncn12 | 57 | 42 | 37 | 53 | Non-toxic
27 | 61.9 | Cc1ccc(-c2csc3ncn4c(=O)c5cc(Br)cc(Br)c5nc4c23)cc1 | 37 | 22 | 20 | 33 | –
28 | 83.7 | O=c1c2ccccc2nc2c3c(-c4ccc([N+](=O)[O-])cc4)cc(-c4ccc([N+](=O)[O-])cc4)nc3ncn12 | 23 | 11 | 5 | 11 | –
29 | 78 | O=c1c2cc(Br)cc(Br)c2nc2c3c(-c4ccccc4)cc(-c4ccc(Cl)cc4)nc3ncn12 | 47 | 30 | 28 | 42 | –
30 | 228 | O=c1c2ccccc2nc2c3c4c(sc3ncn12)CCCC4 | 81 | 71 | 70 | 75 | Non-toxic
31 | 90.5 | O=c1c2cc(Br)ccc2nc2c3c(-c4ccc(Cl)cc4)csc3ncn12 | 50 | 29 | 26 | 44 | –
32 | 230 | Cc1ccc(-c2csc3ncn4c(=O)c5ccccc5nc4c23)cc1 | 68 | 51 | 48 | 62 | Non-toxic
33 | 72.1 | COc1ccc(-c2cc(-c3ccccc3)nc3ncn4c(=O)c5ccccc5nc4c23)cc1 | 22 | 8 | 7 | 18 | –
34 | 72.5 | Cc1ccc(-c2cc(Cc3ccco3)c3c(ncn4c(=O)c5cc(Br)ccc5nc34)n2)cc1 | 41 | 24 | 13 | 37 | –
35 | 82.2 | COc1ccc(-c2csc3ncn4c(=O)c5cc(Br)ccc5nc4c23)cc1 | 70 | 53 | 50 | 59 | –
36 | 295 | Cc1sc2ncn3c(=O)c4ccccc4nc3c2c1C | 86 | 76 | 74 | 84 | Non-toxic
37 | 24.7 | CC(C)Cn1c(=O)n(C)c(=O)c2nc[nH]c21 [ISOBUTYLMETHYLXANTHINE] | – | – | – | – | –

— ChEMBL document CHEMBL1152602, “A new therapeutic approach in Parkinson's disease: some novel quinazoline derivatives as dual selective phosphodiesterase 1 inhibitors and anti-inflammatory agents” (Bioorg Med Chem, 2009)
